Measured values as given in patent US11684646B2, “Methods and related compositions for reducing oxidative stress” (Gateway Health Alliances, Inc., priority 2019, dated 2023).

Assays:
[1] = tested on: Aluminum chloride induced neurotoxicity in Wistar rats; assay: Aluminum chloride induced neurotoxicity in rats: catalase activity in brain; type: in vivo
Description: [formula] I.3. Evaluation of Neuro-Protective Effects of the Hydro-Ethanolic Extract of B. toxisperma Against Aluminum Chloride Induced Neurotoxicity (Animal Model of Neurotoxicity)
Twenty albinos Wistar rats weighing between 230-250 g were used for this experiment in which the treatment lasted 3 days. The experimentation was conducted in the animal house of the Laboratory of Nutrition and Nutritional Biochemistry of the department of Biochemistry (Faculty of Science, University of Yaounde I). Animals were fed with standard feed and drinking water ad libitum.
Rats were divided into 5 groups of 4 rats each. A unique dose of 32.5 mg/kg BW of aluminum trichloride (AlCl3) was administered by intra peritoneal (i.p) route. […]
PROTOCOL: The assay tubes contained 100 μL of homogenate or plasma or ovalbumin (caliber) and 3 mL of Biuret's reagent (annex 3c). […] The optical densities were read at 540 nm against a blank which contained 3 mL of reagent solution and 100 μL of NaCl 0.9% incubated under similar conditions. The total protein concentration was determined from the following equation: […]
PRINCIPLE: This method is based on the fact that the catalase present in hemolysates or homogenates reduces hydrogen peroxide (H2O2) to water (H2O) and oxygen (O2). […] Catalase activity is proportional to the optical density and is determined by use of a calibration curve. […]

[2] = Ability to trap the hydroxyl radical (deoxyribose oxidation, Fenton reaction)
Text: I.2.3 Ability to Trap the Hydroxyl (^·OH) Radical (Halliwell et al., 1987)
PRINCIPLE: The […] capacity of plant extracts to trap the hydroxyl radical is based on the Fenton reaction, by measuring the production of ·OH radical and its effect on the oxidation and degradation bio-molecules such as deoxyribose in DNA. The system in this technique involves an auto-oxidation of the Fe^2+-EDTA complex in an aqueous medium to form the superoxide (O2^−·) anion which is rapidly dismutated into H2O2 at a pH of 7.4. The latter then reacts with Fe^2+ form ^·OH radicals in the presence of ascorbic acid which acts as catalyst (Fenton reaction). […]
PROTOCOL: The reaction mixture contained the following reagents: 0.4 mL of phosphate buffer (50 mmol/L, pH=7.4), 0.1 mL of different concentrations of the extract, 0.1 mL of EDTA (1.04 mmol/L), 0.1 mL of FeCl3 (1 mmol/L) and 0.1 mL 2-deoxyribose (60 mmol/L). the reaction was initiated by adding 0.1 mL of ascorbic acid (2 mmol/L) and 0.1 mL of H2O2 (10 mmol/L). after incubating for 1 hour at 37° C., 1 mL of TBA (10 g/L) were added into the reaction medium followed by 1 mL of HCl (25% v/v). […] The absorbance was then read at 532 nm. The capacity of extracts to trap the hydroxyl radical was expressed as percentage inhibition of the oxidation of 2-deoxyribose based on the following formula: […]

With Vitamin E as the substance, how does the “effect on catalase activity compared with the PC group” value ([1]; HEEBT 150 and 300 mg/kg BW, vitamin E, p<0.05) read?
The value was “significantly (p<0.05) restore”.

What about the Catalase ([1]; brain of rats, AlCl3 32.5 mg/kg i.p., Vit E 100 mg/kg BW/day (VE100)) of the same substance?
Its Catalase is 0.030 ± 0.003 mM H2O2/min/mg of proteins.

What about the “IC50 ·OH scavenging activity” value [2] of the same substance?
The value was 25.3 mg/mL.
